Test results published in ChEMBL document CHEMBL1201862, “PubChem BioAssay data set” (2004).
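Test compounds were applied to cells in 96-well plates for 48 hours at 5 doses. The concentration for 50% growth inhibition is given as GI50.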 Activity calls are given as the source filed them. Rule as the data show it: active = GI50 up to about 1.1 µM and inactive = higher.

Tests used:
Experiment in all cases: DTP human tumour cell line panel, 48 h
[1] = tested on: 786-0
[2] = tested on: A498
[3] = tested on: A549
[4] = tested on: ACHN
[5] = tested on: BT-549
[6] = tested on: CAKI-1
[7] = tested on: CCRF-CEM
[8] = tested on: COLO 205
[9] = tested on: DU-145
[10] = tested on: EKVX
[11] = tested on: HCC 2998
[12] = tested on: HCT-116
[13] = tested on: HCT-15
[14] = tested on: HOP-62
[15] = tested on: HT-29
[16] = tested on: Hs-578T
[17] = tested on: IGROV-1
[18] = tested on: K562
[19] = tested on: KM12
[20] = tested on: LOX IMVI
[21] = tested on: M14
[22] = tested on: MCF7
[23] = tested on: MDA-MB-231
[24] = tested on: MDA-MB-435
[25] = tested on: MDA-N
[26] = tested on: MOLT-4
[27] = tested on: Malme-3M
[28] = tested on: NCI-H226
[29] = tested on: NCI-H460
[30] = tested on: NCI-H522
[31] = tested on: NCI/ADR-RES
[32] = tested on: OVCAR-3
[33] = tested on: OVCAR-4
[34] = tested on: OVCAR-5
[35] = tested on: OVCAR-8
[36] = tested on: PC-3
[37] = tested on: RPMI-8226
[38] = tested on: RXF 393
[39] = tested on: SF-268
[40] = tested on: SF-295
[41] = tested on: SK-MEL-28
[42] = tested on: SK-MEL-2
[43] = tested on: SK-MEL-5
[44] = tested on: SK-OV-3
[45] = tested on: SN12C
[46] = tested on: SNB-19
[47] = tested on: SNB-75
[48] = tested on: SR
[49] = tested on: SW-620
[50] = tested on: T47D
[51] = tested on: TK-10
[52] = tested on: U-251
[53] = tested on: UACC-257
[54] = tested on: UACC-62
[55] = tested on: UO-31
[56] = tested on: HL-60
[57] = tested on: HOP-92
[58] = tested on: NCI-H23
[59] = tested on: SF-539

## CNC1=Nc2ccccc2C(=O)N2CSCC12 (stereo not given)
[1]
  GI50: > 100 µM (inactive)
[2]
  GI50: > 100 µM (inactive)
[3]
  GI50: > 100 µM (inactive)
[4]
  GI50: > 100 µM (inactive)
[5]
  GI50: > 100 µM (inactive)
[6]
  GI50: > 100 µM (inactive)
[7]
  GI50: > 100 µM (inactive)
[8]
  GI50: > 100 µM (inactive)
[9]
  GI50: > 100 µM (inactive)
[10]
  GI50: > 100 µM (inactive)
[11]
  GI50: > 100 µM (inactive)
[12]
  GI50: > 100 µM (inactive)
[13]
  GI50: > 100 µM
[14]
  GI50: > 100 µM (inactive)
[15]
  GI50: > 100 µM (inactive)
[16]
  GI50: > 100 µM (inactive)
[17]
  GI50: > 100 µM (inactive)
[18]
  GI50: > 100 µM (inactive)
[19]
  GI50: > 100 µM (inactive)
[20]
  GI50: > 100 µM (inactive)
[21]
  GI50: > 100 µM (inactive)
[22]
  GI50: > 100 µM (inactive)
[23]
  GI50: > 100 µM (inactive)
[24]
  GI50: > 100 µM (inactive)
[25]
  GI50: > 100 µM (inactive)
[26]
  GI50: > 100 µM (inactive)
[27]
  GI50: > 100 µM (inactive)
[28]
  GI50: > 100 µM (inactive)
[29]
  GI50: > 100 µM (inactive)
[30]
  GI50: 23.9 µM (inactive)
[31]
  GI50: > 100 µM (inactive)
[32]
  GI50: > 100 µM (inactive)
[33]
  GI50: > 100 µM (inactive)
[34]
  GI50: > 100 µM (inactive)
[35]
  GI50: > 100 µM (inactive)
[36]
  GI50: > 100 µM (inactive)
[37]
  GI50: > 100 µM (inactive)
[38]
  GI50: > 100 µM (inactive)
[39]
  GI50: > 100 µM (inactive)
[40]
  GI50: > 100 µM (inactive)
[41]
  GI50: > 100 µM (inactive)
[42]
  GI50: > 100 µM (inactive)
[43]
  GI50: > 100 µM (inactive)
[44]
  GI50: > 100 µM (inactive)
[45]
  GI50: > 100 µM (inactive)
[46]
  GI50: > 100 µM (inactive)
[47]
  GI50: > 100 µM (inactive)
[48]
  GI50: > 100 µM (inactive)
[49]
  GI50: > 100 µM (inactive)
[50]
  GI50: > 100 µM (inactive)
[51]
  GI50: > 100 µM (inactive)
[52]
  GI50: > 100 µM (inactive)
[53]
  GI50: > 100 µM (inactive)
[54]
  GI50: > 100 µM (inactive)
[55]
  GI50: > 100 µM (inactive)

## COc1ccc2c(c1)[nH]c1c3ccc(OC)cc3oc(=O)c21
[1]
  GI50: 0.432 µM (active)
[2]
  GI50: > 100 µM (inactive)
[3]
  GI50: > 100 µM (inactive)
[4]
  GI50: > 100 µM (inactive)
[5]
  GI50: 57.3 µM (inactive)
[6]
  GI50: > 100 µM (inactive)
[7]
  GI50: > 100 µM (inactive)
[8]
  GI50: > 100 µM (inactive)
[9]
  GI50: > 100 µM (inactive)
[10]
  GI50: > 100 µM (inactive)
[11]
  GI50: > 100 µM (inactive)
[12]
  GI50: > 100 µM (inactive)
[13]
  GI50: 5.27 µM
[56]
  GI50: 0.867 µM (active)
[14]
  GI50: > 100 µM (inactive)
[57]
  GI50: > 100 µM (inactive)
[15]
  GI50: > 100 µM (inactive)
[16]
  GI50: 55.2 µM (inactive)
[17]
  GI50: > 100 µM (inactive)
[18]
  GI50: > 100 µM (inactive)
[19]
  GI50: 19.8 µM (inactive)
[20]
  GI50: > 100 µM (inactive)
[21]
  GI50: > 100 µM (inactive)
[22]
  GI50: 5.73 µM (inactive)
[23]
  GI50: 92 µM (inactive)
[24]
  GI50: 0.91 µM (active)
[25]
  GI50: 0.9 µM (active)
[26]
  GI50: > 100 µM (inactive)
[27]
  GI50: > 100 µM (inactive)
[28]
  GI50: > 100 µM (inactive)
[58]
  GI50: > 100 µM (inactive)
[29]
  GI50: > 100 µM (inactive)
[31]
  GI50: > 100 µM (inactive)
[32]
  GI50: > 100 µM (inactive)
[33]
  GI50: > 100 µM (inactive)
[34]
  GI50: > 100 µM (inactive)
[35]
  GI50: > 100 µM (inactive)
[36]
  GI50: > 100 µM (inactive)
[37]
  GI50: 60.7 µM (inactive)
[38]
  GI50: > 100 µM (inactive)
[39]
  GI50: > 100 µM (inactive)
[40]
  GI50: > 100 µM (inactive)
[59]
  GI50: > 100 µM (inactive)
[41]
  GI50: > 100 µM (inactive)
[42]
  GI50: > 100 µM (inactive)
[43]
  GI50: > 100 µM (inactive)
[44]
  GI50: > 100 µM (inactive)
[45]
  GI50: > 100 µM (inactive)
[46]
  GI50: > 100 µM (inactive)
[47]
  GI50: 25.1 µM (inactive)
[49]
  GI50: > 100 µM (inactive)
[50]
  GI50: > 100 µM (inactive)
[51]
  GI50: > 100 µM (inactive)
[52]
  GI50: > 100 µM (inactive)
[53]
  GI50: > 100 µM (inactive)
[54]
  GI50: > 100 µM (inactive)
[55]
  GI50: > 100 µM (inactive)

## c1ccc([P+](Cc2ccccc2C[P+](c2ccccc2)(c2ccccc2)c2ccccc2)(c2ccccc2)c2ccccc2)cc1
[1]
  GI50: > 100 µM (inactive)
[2]
  GI50: > 100 µM (inactive)
[3]
  GI50: > 100 µM (inactive)
[4]
  GI50: > 100 µM (inactive)
[5]
  GI50: 65.9 µM (inactive)
[6]
  GI50: > 100 µM (inactive)
[8]
  GI50: > 100 µM (inactive)
[9]
  GI50: > 100 µM (inactive)
[11]
  GI50: > 100 µM (inactive)
[12]
  GI50: 29.4 µM (inactive)
[13]
  GI50: > 100 µM
[56]
  GI50: 22.8 µM (inactive)
[14]
  GI50: > 100 µM (inactive)
[15]
  GI50: 51.2 µM (inactive)
[16]
  GI50: > 100 µM (inactive)
[17]
  GI50: 66.1 µM (inactive)
[18]
  GI50: 42.5 µM (inactive)
[19]
  GI50: 49.9 µM (inactive)
[20]
  GI50: 37.6 µM (inactive)
[21]
  GI50: > 100 µM (inactive)
[22]
  GI50: > 100 µM (inactive)
[23]
  GI50: > 100 µM (inactive)
[24]
  GI50: 42.8 µM (inactive)
[25]
  GI50: 30.3 µM (inactive)
[27]
  GI50: > 100 µM (inactive)
[28]
  GI50: > 100 µM (inactive)
[58]
  GI50: 87.3 µM (inactive)
[29]
  GI50: 38.9 µM (inactive)
[30]
  GI50: > 100 µM (inactive)
[31]
  GI50: > 100 µM (inactive)
[32]
  GI50: 86.7 µM (inactive)
[34]
  GI50: > 100 µM (inactive)
[35]
  GI50: > 100 µM (inactive)
[36]
  GI50: > 100 µM (inactive)
[37]
  GI50: 6.03 µM (inactive)
[38]
  GI50: > 100 µM (inactive)
[39]
  GI50: > 100 µM (inactive)
[40]
  GI50: 57.8 µM (inactive)
[59]
  GI50: > 100 µM (inactive)
[41]
  GI50: > 100 µM (inactive)
[42]
  GI50: > 100 µM (inactive)
[43]
  GI50: > 100 µM (inactive)
[44]
  GI50: > 100 µM (inactive)
[45]
  GI50: > 100 µM (inactive)
[46]
  GI50: 50.6 µM (inactive)
[47]
  GI50: > 100 µM (inactive)
[49]
  GI50: > 100 µM (inactive)
[50]
  GI50: > 100 µM (inactive)
[51]
  GI50: > 100 µM (inactive)
[52]
  GI50: 63.5 µM (inactive)
[53]
  GI50: > 100 µM (inactive)
[54]
  GI50: 44.2 µM (inactive)
[55]
  GI50: > 100 µM (inactive)
